Measured values published in patent US20260217659A1, “COMPOUNDS, COMPOSITIONS AND USES THEREOF IN THE TREATMENT AND PREVENTION OF DISEASES AND CONDITIONS ASSOCIATE WITH OR AGGRAVATED BY IMPAIRED MITOPHAGY OR OXIDATIVE STRESS” (Yissum Research Development Company of The Hebrew …, priority 2023, published 2026).

Columns and labels:
Huh-7 cells = test: Huh-7 cell survival, MTT assay; format: cell-based, human; conditions: 72 h
Description: Huh-7 cells (2000 per well, in 96-wells plate) were treated with 100 μM of each compound. Cell viability was measured by MTT assay after 72 h. Asterisks represent a comparison to vehicle control. ****p<0.0001. N=3 biological repeats. Error bars represent SEM.
(§1) FIGS. 5A-5D show how ST-480 and CQ kill Huh-7 cells in a dose-dependent manner. (5A) Surviving curves in 200 mM paraquat (PQ). Worms were treated with ST-480 at the indicated concentrations or with the vehicle as a control for 48 h. Afterward, they were treated with 200 mM PQ, and their survival was measured after 3 and 6 h. N=6 biological repeats, P values are indicated (compared with the vehicle control). Bar graphs displaying the survival of Huh-7 cells in different doses of CQ (4B) and ST-480 (5C) —the experimental setup was similar to that described in FIG. 1. Asterisks represent a comparison to vehicle control. N=3 biological repeats. (5D) Bar graph showing the combined effect of ST-480 and CQ on Huh-7 cells' survival after 72 h. *p<0.05, ***p<0.001, ****p<0.0001. N=3 biological repeats. *Error bars represent SEM.
ST-480, is one of the diamine compounds of the invention that inhibits liver cancer cell viability. […] Therefore, the activity of the polyamine compound of the invention in liver cancer therapy. To explore this, the inventors screened the effect of eight new compounds. In addition, the effect of two compounds in the context of lifespan, health-span, and proteotoxicity, i.e., the diamines VL-004 and VL-850 were examined, and the natural polyamine spermidine (Spd). Huh-7 cells (derived from hepatocellular carcinoma of a person) were exposed to 100 μM of each compound and examined their survival after 72 h using an MTT assay.
Chloroquine (CQ) has been used safely to treat malaria and to suppress autophagic flux. Moreover, as indicated above, it induces DNA damage and apoptosis in cancer cells. The effect of different CQ concentrations on Huh-7 cells' survival after 72 h were tested. In parallel, dose-response experiments testing ST-480 toxicity in these cells were performed.

Hep-3B cells [1] = test: Hep-3B cell survival; format: cell-based, human; conditions: single agent, 72 h
Description: (§2) FIGS. 6A-6E show how ST-480 and CQ effectively kill Hep-3B cancer cells. Bar graphs displaying the effects of ST-480 (6A) and CQ (6B) and their combined effect 6C) on Hep-3B cells' survival after 72 h—the experimental setup was similar Asterisks represent a comparison to vehicle control (6A and 6B) or towards (the same CQ concentration under vehicle treatment conditions (5C). *p<0.05, **p<0.01, ***p<0.001, ****p<0.0001. N=3 biological repeats. (5D) Representative images show the state of Hep-3B cells treated as described in (6C). Scale bar: 200 μm. (5E) BEAS-2B cells are not sensitive to ST-480, ns-non-significance. N-3. Error bars represent SEM.
(§3) To strengthen these conclusions, the impact of ST-480 and CQ was tested on another liver cancer cell line, namely Hep-3B′ the Hep-3B cell line originated from a person with primary hepatocellular carcinoma (HCC). […] In addition, the combined effect of ST-480 and CQ on Hep-3B survival was tested. […] In this respect, it should be emphasized that ST-480 was not toxic to non-cancer cells.

C. elegans = test: Survival of worms in 200 mM paraquat (oxidative stress resistance); format: in vivo; conditions: 48 h treatment, then 200 mM paraquat, survival after 3 and 6 h
Description: as §1
Chloroquine (CQ) enhances ST-480 cytotoxicity.

BEAS-2B cells = test: BEAS-2B non-cancer cell survival; format: cell-based; conditions: 70 µM and 100 μM, 72 h
Description: as §2, §3

Hep-3B cells [2] = test: Mitophagy: colocalization of mitochondria and lysosomes in Hep-3B cells; format: cell-based, human; conditions: 100 μM, 6 h
Description: FIGS. 7A-7B show how ST-480 induces mitophagy. (7A) Colocalization of mitochondria and lysosome. Arrowheads indicate representative colocalization. The inset represents an eight-fold enlargement-scale bar: 50 μm. (7B) Colocalization quantification. N=3, ≥412 cells per treatment. *p<0.05, Error bars represent SEM.
ST-480 induces mitophagy in Hep-3B cells. To explore whether ST-480 induces mitophagy, Hep-3B cells were exposed to 100 μM ST-480 or vehicle control for 6 h. To measure mitophagy, the colocalization of mitochondria and lysosomes were quantified using specific mitochondrial and lysosomal dyes. In addition, nuclei were stained using a DNA dye—For this, the Cytopainter ab139487 kit, was used.

HUH7 cells = test: XTT proliferation inhibition, HUH7; format: cell-based; conditions: Homo sapiens, Huh-7, HUH7, liver cancer (HCC), 72 h
Description: (§4) Cell lines: PANC-1. Organism: Homo sapiens, human/Tissue: Pancreas; Duct/Disease: Epithelioid Carcinoma HUH7. Organism: Homo sapiens, human/Tissue: Liver/Disease: Carcinoma; Hepatocellular NCI-H69. Organism: Homo sapiens, human/Tissue: Lung/Disease: NSCL U87 MG. Organism: Homo sapiens, human/Tissue: Brain/Disease: Glioma
(§5) PANC-1, HUH7, NCI-H69 and U87 MG cells are plated in one 96 well plate each, in their culture medium, at 7500 cells/well. Cells are allowed to attach for 16-24 hours at 37° C., 5% CO2. Thereafter, culture medium is discarded, and fresh culture medium is added to the cells, supplemented with elevating ST-1944 concentrations: 0.4, 2, 10 and 50 μM, 3 wells of each concentration (triplicates). The cells are incubated another 72±2 hours at 37° C., 5% CO2. At the end of incubation period, medium is discarded and 100 μL fresh culture medium is added to the cells along with 50 μL XTT reagent. The OD is measured in a plate reader once Vehicle treated cells are reach the range of 0.5-1.5 OD at 450 nm wavelength.
(§6) PANC-1 and HUH7culture medium: DMEM Medium (4.5 g/L glucose), supplemented with 10% FBS (heat inactivated), 2 mM L-Glutamine, and 1% of Pen/Strep Solution. U87 MG and NCI-H69 culture medium: EMEM Medium, supplemented with 10% FBS (heat inactivated), 2 mM L-Glutamine, and 1% of Pen/Strep Solution. […]

PANC-1 cells = test: XTT proliferation inhibition, PANC-1; format: cell-based; conditions: Homo sapiens, Panc-1, pancreatic cancer, 72 h
Description: as §4, §5, §6

NCI-H69 cells = test: XTT proliferation inhibition, NCI-H69; format: cell-based; conditions: Homo sapiens, NCI-H69, lung cancer (NSCLC), 72 h
Description: as §4, §5, §6

U87 MG cells = test: XTT proliferation inhibition, U87 MG; format: cell-based; conditions: Homo sapiens, U-87 MG, glioma (GBM), 72 h
Description: as §4, §5, §6

IC50 (HUH7 cells) [µM]	IC50 (PANC-1 cells) [µM]	IC50 (NCI-H69 cells) [µM]	IC50 (U87 MG cells) [µM]	Compound	Huh-7 cells' survival, dose response (Huh-7 cells; CQ at 7, 8, and 10 μM)	Hep-3B cells' survival (Hep-3B cells [1])	Huh-7 cell survival (Huh-7 cells; 100 μM, MTT assay)	Huh-7 cells' survival, dose response (Huh-7 cells; ST-480 at 60, 80, and 100 μM)	resistance to oxidative stress (C. elegans)	cell death of non-cancer BEAS-2B cells (BEAS-2B cells)	mitophagy (colocalization of mitochondria and lysosomes) (Hep-3B cells [2])
				CCN(CC)CCCC(C)Nc1ccnc2cc(Cl)ccc12 (stereo not drawn) [CQ, chloroquine, reference compound]	significantly decreased cells' survival	sensitive to both ST-480 and CQ in a dose-dependent manner					
				NCCCCc1ccccc1CCCCN [ST-480]		sensitive to both ST-480 and CQ in a dose-dependent manner	significantly decreased Huh-7 cell survival	significantly decreased cells' survival	confer resistance to oxidative stress	did not observe a significant cell death	induces mitophagy in a significant manner
2	1	10	10	Cn1ccnc1SCCCCc1ccccc1CCCCSc1nccn1C [ST-1944]							
